Source: patent US9271991B2, “Trimegestone (TMG) for treatment of preterm birth” (Dignity Health, priority 2010, dated 2016)
Several values for one entry are separate records, joined by “and”; a condition that tells them apart may be missing. Identical values can stand only once. Entries after “also recorded” stand apart in the source; their conditions may differ.

Experiments:
[1] = test system: mineralocorticoid receptors (MR); details: cited from earlier work
[2] = test system: pregnant guinea pigs (preterm delivery); test: PGE2-induced preterm delivery in pregnant guinea pigs; type: in vivo, Hartley guinea pigs; details: sacrifice day 48
Text: Pregnant guinea pigs, another model of pregnancy are also utilized as they more closely resemble the endocrine control of human pregnancy with progesterone levels in pregnancy maintained by the placenta as opposed to the ovaries, which is observed in pregnant rats.
Pregnant Hartley guinea pigs arrived at our facilities at 31-35 days gestation and housed in pairs, with free access to food and water and also maintained on a constant 12-hour light-dark cycle. The animals were euthanized with a combination of xylazine (Gemini; Burns Veterinary Supply Inc, Rockville Center, N.Y.) and ketamine HCL (Ketaset; Fort Dodge Laboratories Inc, Fort Dodge, Iowa). All procedures were approved by the Animal Care and Use Committee of the St. Joseph's Hospital and Medical Center in Phoenix, Ariz.
Pregnant guinea pigs (N=4-6 per group) were allocated into 4 groups (Vehicle (v) only, TMG only, PGE2 only, PGE2+TMG). PGE2 administration (3 mg/day s.c, v=saline) began daily on day 46 to day 47 of gestation. TMG administration (4 mg/day s.c v=BB:CO) began daily on day 44 until day 47 of gestation. All guinea pigs were sacrificed on day 48.

[3] = test system: estrogenic activity in the uterine endometrium; details: in vivo; cited from earlier work
[4] = test system: MMP expression (MMP-1, MMP-3) in cultured stromal cells; details: cited from earlier work
[5] = test system: rat pups of treated pregnant rats; test: Sex of pups / fetuses of TMG-treated pregnant rats; type: in vivo
Description: To determine the effects of TMG on progeny sex ratios, pregnant rats (N=9 per group) were treated daily beginning on day 13 of gestation with TMG (in benzyl benzoate+castor oil, vehicle) or with vehicle only. […] Pups were then placed with surrogate mother also on day 22 of gestation whose pups were sacrificed.
As described, the sex of the pups was evaluated 21 days post-partum by examining external genitalia as well as distance between rectum and genitalia.

[6] = test system: offspring of TMG-treated rats; test: Fertility of offspring of TMG-treated pregnant rats; type: in vivo, rat; details: offspring bred at 5 months with untreated partners, n=6 per sex
Text: To determine the effects of TMG on fertility the following procedure was followed. When pups from TMG-treated pregnant rats were of breeding age (5 months) the females were placed with normal (untreated) males for 6 days. Similarly, male pups from TMG-treated rats were placed with normal (untreated) females for 6 days.

[7] = species not stated; cited from earlier work
[8] = target: T1, progesterone receptor (PR) (Homo sapiens, UniProt P06401); details: cited from earlier work
T1 sequence (P06401 1-933): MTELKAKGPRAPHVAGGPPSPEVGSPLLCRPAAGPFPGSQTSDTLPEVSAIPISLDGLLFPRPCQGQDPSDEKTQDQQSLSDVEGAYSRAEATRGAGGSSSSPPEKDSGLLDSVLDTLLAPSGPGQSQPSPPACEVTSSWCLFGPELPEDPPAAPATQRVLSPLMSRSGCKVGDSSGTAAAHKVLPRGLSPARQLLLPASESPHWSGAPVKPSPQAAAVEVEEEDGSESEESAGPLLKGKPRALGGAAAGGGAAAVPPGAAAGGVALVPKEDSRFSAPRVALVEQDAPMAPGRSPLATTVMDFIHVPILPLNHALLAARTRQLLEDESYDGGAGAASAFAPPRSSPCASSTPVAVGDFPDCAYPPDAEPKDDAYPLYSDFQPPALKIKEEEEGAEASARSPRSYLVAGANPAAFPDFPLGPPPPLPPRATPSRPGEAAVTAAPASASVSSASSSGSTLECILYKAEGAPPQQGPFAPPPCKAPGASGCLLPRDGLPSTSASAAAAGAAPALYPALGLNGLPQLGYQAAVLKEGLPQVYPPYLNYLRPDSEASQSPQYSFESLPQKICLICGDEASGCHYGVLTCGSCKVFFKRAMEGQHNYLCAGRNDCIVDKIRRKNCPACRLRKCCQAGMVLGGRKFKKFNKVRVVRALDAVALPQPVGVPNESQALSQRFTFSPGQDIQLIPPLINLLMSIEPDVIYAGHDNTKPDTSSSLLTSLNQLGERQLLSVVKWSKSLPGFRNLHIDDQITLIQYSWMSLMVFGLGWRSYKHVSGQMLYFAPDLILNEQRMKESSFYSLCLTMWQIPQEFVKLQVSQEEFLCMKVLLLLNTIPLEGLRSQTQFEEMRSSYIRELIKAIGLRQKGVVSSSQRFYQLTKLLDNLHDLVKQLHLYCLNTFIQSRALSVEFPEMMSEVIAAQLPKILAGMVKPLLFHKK

glucocorticoid receptor = target: T2, glucocorticoid receptor (Homo sapiens, UniProt P04150); details: cited from earlier work
T2 sequence (P04150 1-777): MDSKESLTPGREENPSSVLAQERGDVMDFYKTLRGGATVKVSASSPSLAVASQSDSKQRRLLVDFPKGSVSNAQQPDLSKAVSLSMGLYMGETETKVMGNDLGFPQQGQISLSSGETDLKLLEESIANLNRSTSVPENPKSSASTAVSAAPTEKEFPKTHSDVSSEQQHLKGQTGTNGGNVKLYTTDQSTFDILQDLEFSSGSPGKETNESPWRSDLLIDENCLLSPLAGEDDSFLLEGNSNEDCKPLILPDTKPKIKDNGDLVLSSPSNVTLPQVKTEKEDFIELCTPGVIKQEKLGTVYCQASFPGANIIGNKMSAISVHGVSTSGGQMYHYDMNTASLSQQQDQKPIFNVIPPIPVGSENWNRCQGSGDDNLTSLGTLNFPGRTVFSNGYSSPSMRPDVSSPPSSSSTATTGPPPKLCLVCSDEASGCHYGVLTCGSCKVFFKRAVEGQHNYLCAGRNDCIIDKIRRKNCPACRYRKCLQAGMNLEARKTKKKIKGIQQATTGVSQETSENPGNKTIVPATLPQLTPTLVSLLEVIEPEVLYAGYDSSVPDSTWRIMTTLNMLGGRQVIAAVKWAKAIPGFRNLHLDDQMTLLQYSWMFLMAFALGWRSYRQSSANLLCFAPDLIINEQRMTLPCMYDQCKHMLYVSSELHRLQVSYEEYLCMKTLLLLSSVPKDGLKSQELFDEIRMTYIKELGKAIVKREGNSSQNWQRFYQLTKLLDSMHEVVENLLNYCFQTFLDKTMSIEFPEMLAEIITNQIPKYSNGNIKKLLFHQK

C[C@H](O)C(=O)[C@@]1(C)CC[C@H]2[C@@H]3CCC4=CC(=O)CCC4=C3CC[C@@]21C [TMG, trimegestone]
affinity to the mineralocorticoid receptor [1]: low affinity
relative binding affinity (RBA) for TMG-mineralocorticoid receptors (MR) [1]: 42
guinea pigs delivered (preterm) / treated, substance alone ([2]; TMG 4 mg/day s.c. days 44-47, PGE2 3 mg/day days 46, 47): 1/4
guinea pigs delivered (preterm) / treated, TMG plus PGE2 ([2]; TMG 4 mg/day s.c. days 44-47 and PGE2 3 mg/day days 46-47): None and 2/6
antagonism of estrogenic activity in the uterine endometrium versus reference progestins [3]: highest level of estrogenic activity antagonism; also recorded: most potent antagonist of estrogenic activity
effect on MMP expression compared to P4 [4]: differential effect on MMP expression; also recorded: tighter control of MMP expression
masculinizing or feminizing effects on the fetuses ([5]; fetuses of treated rats, treatment from day 13 of pregnancy): lacks masculinization or feminization effects; also recorded: no masculinizing or feminizing effects
ratio of male to female pups versus vehicle control ([5]; pregnant rats treated from day 13 of gestation, N=9): no significant difference; also recorded: non-significant differences
fertility of male and female offspring of treated rats [6]: not compromised
half-life [7]: 17 h
relative binding affinity (RBA) for TMG-PR interactions [8]: 588
affinity for progesterone receptor (PR), higher than P4 ([8]; relative to P4): 6 fold
potency, higher than P4 ([8]; relative to P4): approximately 6 times
affinity for the human progesterone receptor, greater than progesterone (P4) ([8]; relative to P4, human progesterone receptor): 6 times
affinity to the glucocorticoid receptor (glucocorticoid receptor): low affinity
